Measured values: ChEMBL document CHEMBL1201862, “PubChem BioAssay data set” (2004)
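1) Cells in 96-well plates. 2) Compound, 48 h, 5 concentrations. 3) Linear interpolation between surrounding doses. 4) Unreached endpoint = highest concentration. Here, GI50 denotes the concentration required for 50% inhibition of growth.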 The source made the active and inactive calls. No stated cut-off is given here; in the data, active = GI50 up to about 1.1 µM and inactive = higher.

Assays:
Assay in all cases: inhibition of tumour cell growth, NCI panel, 48 h
OVCAR-4 = tested on: OVCAR-4
SK-MEL-2 = tested on: SK-MEL-2
RXF 631 = tested on: RXF 631
OVCAR-5 = tested on: OVCAR-5
LOX IMVI = tested on: LOX IMVI
KM12 = tested on: KM12
CAKI-1 = tested on: CAKI-1
A549 = tested on: A549
K562 = tested on: K562
DMS-114 = tested on: DMS-114
SNB-19 = tested on: SNB-19
M14 = tested on: M14
XF498 = tested on: XF498
TK-10 = tested on: TK-10
RPMI-8226 = tested on: RPMI-8226
M19-MEL = tested on: M19-MEL
EKVX = tested on: EKVX
NCI-H460 = tested on: NCI-H460
HOP-62 = tested on: HOP-62
NCI-H23 = tested on: NCI-H23
HCT-15 = tested on: HCT-15
HT-29 = tested on: HT-29
NCI-H522 = tested on: NCI-H522
UACC-62 = tested on: UACC-62
HCT-116 = tested on: HCT-116
SF-295 = tested on: SF-295
SF-268 = tested on: SF-268
SK-MEL-28 = tested on: SK-MEL-28
CCRF-CEM = tested on: CCRF-CEM
SK-OV-3 = tested on: SK-OV-3
A498 = tested on: A498
OVCAR-8 = tested on: OVCAR-8
UO-31 = tested on: UO-31
Malme-3M = tested on: Malme-3M
786-0 = tested on: 786-0
MOLT-4 = tested on: MOLT-4
SNB-75 = tested on: SNB-75
HCC 2998 = tested on: HCC 2998
U-251 = tested on: U-251
SK-MEL-5 = tested on: SK-MEL-5
OVCAR-3 = tested on: OVCAR-3
DMS-273 = tested on: DMS-273
COLO 205 = tested on: COLO 205
SW-620 = tested on: SW-620
SN12C = tested on: SN12C
HOP-92 = tested on: HOP-92
LXFL 529 = tested on: LXFL 529
ACHN = tested on: ACHN
KM-20L2 = tested on: KM-20L2
HL-60 = tested on: HL-60
SF-539 = tested on: SF-539
DLD-1 = tested on: DLD-1
IGROV-1 = tested on: IGROV-1
NCI-H226 = tested on: NCI-H226
UACC-257 = tested on: UACC-257

Compound: O=C1C2=C(c3ccccc31)C(c1ccccc1Cl)N1C(=O)CSC1=N2 (stereo not given)
- GI50 (OVCAR-4): 60.1 µM (inactive)
- GI50 (SK-MEL-2): > 100 µM (inactive)
- GI50 (RXF 631): > 100 µM (inactive)
- GI50 (OVCAR-5): > 100 µM (inactive)
- GI50 (LOX IMVI): > 100 µM (inactive)
- GI50 (KM12): > 100 µM (inactive)
- GI50 (CAKI-1): > 100 µM (inactive)
- GI50 (A549): > 100 µM (inactive)
- GI50 (K562): 50.4 µM (inactive)
- GI50 (DMS-114): 53.8 µM (inactive)
- GI50 (SNB-19): > 100 µM (inactive)
- GI50 (M14): > 100 µM (inactive)
- GI50 (XF498): 64 µM (inactive)
- GI50 (TK-10): > 100 µM (inactive)
- GI50 (RPMI-8226): 39.8 µM (inactive)
- GI50 (M19-MEL): > 100 µM (inactive)
- GI50 (EKVX): > 100 µM (inactive)
- GI50 (NCI-H460): > 100 µM (inactive)
- GI50 (HOP-62): > 100 µM (inactive)
- GI50 (NCI-H23): 85.7 µM (inactive)
- GI50 (HCT-15): 83.4 µM
- GI50 (HT-29): > 100 µM (inactive)
- GI50 (NCI-H522): 23.8 µM (inactive)
- GI50 (UACC-62): 59.4 µM (inactive)
- GI50 (HCT-116): 87.3 µM (inactive)
- GI50 (SF-295): 83.4 µM (inactive)
- GI50 (SF-268): 56.2 µM (inactive)
- GI50 (SK-MEL-28): 49.3 µM (inactive)
- GI50 (CCRF-CEM): 44.3 µM (inactive)
- GI50 (SK-OV-3): > 100 µM (inactive)
- GI50 (A498): > 100 µM (inactive)
- GI50 (OVCAR-8): > 100 µM (inactive)
- GI50 (UO-31): 54 µM (inactive)
- GI50 (Malme-3M): > 100 µM (inactive)
- GI50 (786-0): > 100 µM (inactive)
- GI50 (MOLT-4): 33.9 µM (inactive)
- GI50 (SNB-75): 39.4 µM (inactive)
- GI50 (HCC 2998): > 100 µM (inactive)
- GI50 (U-251): > 100 µM (inactive)
- GI50 (SK-MEL-5): > 100 µM (inactive)
- GI50 (OVCAR-3): 87.3 µM (inactive)
- GI50 (DMS-273): > 100 µM (inactive)
- GI50 (COLO 205): > 100 µM (inactive)
- GI50 (SW-620): > 100 µM (inactive)
- GI50 (SN12C): > 100 µM (inactive)
- GI50 (HOP-92): 32.5 µM (inactive)
- GI50 (LXFL 529): 74.3 µM (inactive)
- GI50 (ACHN): > 100 µM (inactive)
- GI50 (KM-20L2): > 100 µM (inactive)
- GI50 (HL-60): 45.6 µM (inactive)
- GI50 (SF-539): > 100 µM (inactive)
- GI50 (DLD-1): > 100 µM (inactive)
- GI50 (IGROV-1): > 100 µM (inactive)
- GI50 (NCI-H226): > 100 µM (inactive)
- GI50 (UACC-257): > 100 µM (inactive)
